In publication PMC8880098, “Synthesis, Antibacterial Evaluation, and Computational Studies of a Diverse Set of Linezolid Conjugates” (Pharmaceuticals, 2022):
Values after ≈ are worked out from the molar mass of the structure shown. Like-named read-outs stand apart in the source and are kept apart here.

Legend:
[1] = test system: Bacillus subtilis ATCC 6633; assay: microbe, parasite or virus in culture; design: species or system bacteria; Broth microdilution MIC in Mueller-Hinton broth, absorbance at 620 nm; conditions: ATCC6633, 24 h, read-out: Observed MIC, uM (B. subtilis)
From the text: (§1) Antibacterial properties of the synthesized compounds (3a–k, 5a–f, 7a–c, 9a–c, 11a–f, 13 and 15) were screened against Gram-positive (Staphylococcus aureus ATCC 6538, Bacillus subtilis ATCC 6633) and Gram-negative (Pseudomonas aeruginosa ATCC 15,692 and Escherichia coli ATCC 47076) bacteria utilizing the standard technique. Linezolid was used as a standard reference/drug in the current study. The tested bacterial strains were obtained from MERCIN Center, Faculty of Agriculture, Ain Shams University, Cairo, Egypt. To determine the antibacterial activity, stock solutions of the tested compounds and standard reference were prepared with up to 100% DMSO and stored at […]. If necessary, the solutions were heated to 40–60 °C before testing to facilitate complete dissolution. Double distilled water was used in all dilutions prepared. […] A microdilution susceptibility test was used for MIC determination (Mueller–Hinton broth in 96-well plates) according to the CLSI (the Clinical and Laboratory Standards Institute, Malvern, PA, USA). The bacterial inoculum was adjusted to approximately 2.5–3 × 10^4 cells/mL in Mueller–Hinton broth and incubated in a ratio of 1:1 with the test derivatives in polystyrene 96-well flat-bottom microplates. Positive growth control (without test derivatives) and negative control (without bacteria) were included. The microplates were placed in an incubator set to 37 °C for 24 h. Absorbance was measured at 620 nm at the end of the incubation period. The cut-off level for follow-up studies was defined as a minimum of 90% inhibition of growth compared to the untreated sample. Experiments were conducted once in triplicate. For selected compounds, minimum inhibitory concentration (MIC) values were determined by dose–response experiments. Experiments were performed at least twice, in triplicate per concentration tested.

[2] = test system: Staphylococcus aureus ATCC 6538; assay: Antibacterial MIC, microdilution susceptibility test (CLSI); assay type: cell-based; conditions: Staphylococcus aureus
From the text: (§2) The synthesized linezolid conjugates (3a–k, 5a–f, 7a–c, 9a–c, 11a–f, 13, and 15) were subjected for antimicrobial properties determination against Gram-positive (Staphylococcus aureus ATCC 6538, Bacillus subtilis ATCC 6633) and Gram-negative (Pseudomonas aeruginosa ATCC 15692, Escherichia coli ATCC 47076) bacteria by the standard technique.
(§3) Antibacterial properties of the synthesized compounds (3a–k, 5a–f, 7a–c, 9a–c, 11a–f, 13 and 15) were screened against Gram-positive (Staphylococcus aureus ATCC 6538, Bacillus subtilis ATCC 6633) and Gram-negative (Pseudomonas aeruginosa ATCC 15,692 and Escherichia coli ATCC 47076) bacteria utilizing the standard technique. Linezolid was used as a standard reference/drug in the current study. The tested bacterial strains were obtained from MERCIN Center, Faculty of Agriculture, Ain Shams University, Cairo, Egypt.
as §1, with “To” for “Antibacterial properties of the synthesized compounds (3a–k, 5a–f, 7a–c, 9a–c, 11a–f, 13 and 15) were screened against Gram-positive (Staphylococcus aureus ATCC 6538, Bacillus subtilis ATCC 6633) and Gram-negative (Pseudomonas aeruginosa ATCC 15,692 and Escherichia coli ATCC 47076) bacteria utilizing the standard technique. Linezolid was used as a standard reference/drug in the current study. The tested bacterial strains were obtained from MERCIN Center, Faculty of Agriculture, Ain Shams University, Cairo, Egypt. To”

[3] = test system: Bacillus subtilis ATCC 6633; assay: as above; assay type: cell-based; conditions: Bacillus subtilis, ATCC6633, 24 h, Mueller–Hinton broth, 37 °C, 24 h; read-out: MIC, μg/mL ± SE, B. Subtilis (ATCC 6633)
From the text: as §2, §3
as §1, with “To” for “Antibacterial properties of the synthesized compounds (3a–k, 5a–f, 7a–c, 9a–c, 11a–f, 13 and 15) were screened against Gram-positive (Staphylococcus aureus ATCC 6538, Bacillus subtilis ATCC 6633) and Gram-negative (Pseudomonas aeruginosa ATCC 15,692 and Escherichia coli ATCC 47076) bacteria utilizing the standard technique. Linezolid was used as a standard reference/drug in the current study. The tested bacterial strains were obtained from MERCIN Center, Faculty of Agriculture, Ain Shams University, Cairo, Egypt. To”

[4] = test system: Pseudomonas aeruginosa ATCC 15692; assay: as above; assay type: cell-based
From the text: as §2, §3
as §1, with “To” for “Antibacterial properties of the synthesized compounds (3a–k, 5a–f, 7a–c, 9a–c, 11a–f, 13 and 15) were screened against Gram-positive (Staphylococcus aureus ATCC 6538, Bacillus subtilis ATCC 6633) and Gram-negative (Pseudomonas aeruginosa ATCC 15,692 and Escherichia coli ATCC 47076) bacteria utilizing the standard technique. Linezolid was used as a standard reference/drug in the current study. The tested bacterial strains were obtained from MERCIN Center, Faculty of Agriculture, Ain Shams University, Cairo, Egypt. To”

[5] = test system: Escherichia coli ATCC 47076; assay: as above; assay type: cell-based
From the text: as §2, §3
as §1, with “To” for “Antibacterial properties of the synthesized compounds (3a–k, 5a–f, 7a–c, 9a–c, 11a–f, 13 and 15) were screened against Gram-positive (Staphylococcus aureus ATCC 6538, Bacillus subtilis ATCC 6633) and Gram-negative (Pseudomonas aeruginosa ATCC 15,692 and Escherichia coli ATCC 47076) bacteria utilizing the standard technique. Linezolid was used as a standard reference/drug in the current study. The tested bacterial strains were obtained from MERCIN Center, Faculty of Agriculture, Ain Shams University, Cairo, Egypt. To”

[6] = test system: Staphylococcus aureus ATCC 6538; assay: microbe, parasite or virus in culture; design: species or system bacteria; Broth microdilution MIC in Mueller-Hinton broth, absorbance at 620 nm; conditions: ATCC6538, 24 h, read-out: Observed MIC, uM (S. aureus)
From the text: as §1

[7] = ATCC6538, 24 h, Mueller–Hinton broth, 37 °C, 24 h, read-out: MIC, μg/mL ± SE, S. Aureus (ATCC 6538)
[8] = ATCC15692, Mueller–Hinton broth, 37 °C, 24 h, read-out: MIC, μg/mL ± SE, P. Aeruginosa (ATCC 15692)
[9] = ATCC15692, value in parentheses, read-out: MIC (μmol), P. Aeruginosa (ATCC 15692) (converted)
[10] = ATCC47076, Mueller–Hinton broth, 37 °C, 24 h, read-out: MIC, μg/mL ± SE, E. Coli (ATCC 47076)
[11] = ATCC47076, value in parentheses, read-out: MIC (μmol), E. Coli (ATCC 47076) (converted)

| Structure (SMILES) | melting point [°C] | MIC [1] [µM] | MIC [2, 7] [µg/mL] | MIC ([2]; ATCC6538, value in parentheses, read-out: MIC (μmol), S. Aureus (ATCC 6538) (converted)) [µM] | MIC [3] [µg/mL] | MIC [4, 8] [µg/mL] | MIC ([4]; ATCC15692, read-out: MIC against P. aeruginosa) [µM] | MIC [4, 9] [µM] | MIC [5, 10] [µg/mL] | MIC [5, 11] [µM] | MIC [6] [µM] |
| --- | --- | --- | --- | --- | --- | --- | --- | --- | --- | --- | --- |
| O=C(NC[C@H]1CN(c2ccc(N3CCOCC3)c(F)c2)C(=O)O1)c1ccncc1 [Compound 7a, (S)-N-((3-(3-Fluoro-4-morpholinophenyl)-2-oxooxazolidin-5-yl)methyl)isonicotin-amide] | 198 to 200 | 5 (≈ 2 µg/mL) | 8 ± 0.3 | 20 | 2 ± 0.2 (≈ 4.99 µM) | 8 ± 0.1 | 20 | 20 | 32 ± 0.9 | 79.9 | – |
| CS(=O)(=O)c1ccc(CNC[C@H]2CN(c3ccc(N4CCOCC4)c(F)c3)C(=O)O2)cc1 [Compound 11b, (S)-3-(3-Fluoro-4-morpholinophenyl)-5-[{(4-(methylsulfonyl)benzyl}amino]methyl) oxazolidin-2-one] | – | 69 (≈ 32 µg/mL) | 32 ± 1.2 | – | 32 ± 1.4 (≈ 69 µM) | 64 ± 2.8 | – | 138 | 32 ± 1.1 | 69 | 69 (≈ 32 µg/mL) |
| O=C1O[C@@H](CNCc2ccc(C(F)(F)F)cc2)CN1c1ccc(N2CCOCC2)c(F)c1 [Compound 11c, (S)-3-(3-Fluoro-4-morpholinophenyl)-5-[{(4-(trifluoromethyl)benzyl}amino]methyl) oxazolidin-2-one] | – | 35.3 (≈ 16 µg/mL) | 32 ± 0.8 | – | 16 ± 0.4 (≈ 35.3 µM) | 64 ± 1.5 | – | 141 | 32 ± 0.9 | 70.6 | 70.6 (≈ 32 µg/mL) |
| O=C1O[C@@H](CNCc2cccc(Cl)c2)CN1c1ccc(N2CCOCC2)c(F)c1 [Compound 11d, (S)-5-[{(3-Chlorobenzyl)amino}methyl]-3-(3-fluoro-4-morpholinophenyl) oxazolidin-2-one] | – | 76.2 (≈ 32 µg/mL) | 32 ± 1 | – | 32 ± 1.2 (≈ 76.2 µM) | 32 ± 1.7 | – | 76.2 | 32 ± 2.1 | 76.2 | 76.2 (≈ 32 µg/mL) |
| COc1cc(CNC[C@H]2CN(c3ccc(N4CCOCC4)c(F)c3)C(=O)O2)cc(OC)c1 [Compound 11f, (S)-5-[{(3,5-Dimethoxybenzyl)amino}methyl]-3-(3-fluoro-4-morpholinophenyl) oxazo-lidine-2-one] | – | 71.8 (≈ 32 µg/mL) | 32 ± 1.7 | – | 32 ± 0.3 (≈ 71.8 µM) | 32 ± 1.9 | – | 71.8 | 32 ± 0.8 | 71.8 | 71.8 (≈ 32 µg/mL) |
| O=C1O[C@@H](CNCCCO[N+](=O)[O-])CN1c1ccc(N2CCOCC2)c(F)c1 [Compound 13, (S)-3-[{(3-(3-Fluoro-4-morpholinophenyl)-2-oxooxazolidin-5-yl)methyl}amino] propyl nitrate] | – | 80.3 | 32 ± 1 | – | 32 ± 0.9 | 32 ± 1.5 | – | 80.3 | 32 ± 0.6 | 80.3 | 80.3 |
